Data as given in BindingDB's records for doi:10.1021/acschembio.6b01133 (Merck & Co. Inc, 2017).
Where “and” joins values, the source holds several entries; their conditions need not be identical. Equal entries are not always repeated.

Tests used:
Assay in all cases: RNAP-Inhibition Assay
Settings in all cases: 37 °C
[1] = biological target: DNA-directed RNA polymerase subunit beta (Escherichia coli (strain K12), UniProt P0A8V2)
Method: (§1) Fluorescence-detected RNAP inhibition assays in Tables 1 and 4 were performed using a DNA fragment containing the lacUV5 promoter as a template and the profluorescent ATP analog γ-[2′-(2-benzothiazoyl)-6′-hydroxybenzothiazole]-ATP(BBT-ATP, Jena Biosciences) as a substrate (methods as in ref 32). Fluorescence-detected RNAP inhibition assays in Figure 2C were performed essentially as described in refs 33 and 34. The assay used a proprietary circular single-stranded DNA as a template (Kool NC-45 Universal RNAP Template, Epicenter). […] A total of 5 μL of 20 nM recombinant RNAP in assay buffer [50 mM HEPES (pH = 8.0), 50 mM KCl, 4 mM MgCl2, 5% glycerol (v/v), 1 mM DTT, 0.1 mg mL−1 BSA, and 0.01% Triton X-100 (v/v)] was then added. After a 30 min incubation at RT, 5 μL of assay buffer solution containing 0.04 ng/μL DNA template and rNTPs (ATP, CTP, GTP, UTP; 600 μM each; Lucigen) was added to start the reaction. After incubation for 2 h at 37 °C, 70 μL of Quant-iT RiboGreen RNA Reagent [1:350 dilution in buffer containing 10 mM Tris-HCl (pH = 7.5) and 1 mM EDTA] was added to stop the reaction and develop the signal. The plate was read using a PheraStar Plus plate reader (BMG).

[2] = biological target: DNA-directed RNA polymerase subunit beta [S531L] (Escherichia coli, S531L)
Method: as §1

[3] = biological target: DNA-directed RNA polymerase subunit beta [D516V] (Escherichia coli, D516V)
Method: as §1

[4] = biological target: DNA-directed RNA polymerase subunit beta [H526D] (Escherichia coli, H526D)
Method: as §1

DNA-directed RNA polymerase subunit beta, sequence (P0A8V2 whole entry, the tested form may be a part): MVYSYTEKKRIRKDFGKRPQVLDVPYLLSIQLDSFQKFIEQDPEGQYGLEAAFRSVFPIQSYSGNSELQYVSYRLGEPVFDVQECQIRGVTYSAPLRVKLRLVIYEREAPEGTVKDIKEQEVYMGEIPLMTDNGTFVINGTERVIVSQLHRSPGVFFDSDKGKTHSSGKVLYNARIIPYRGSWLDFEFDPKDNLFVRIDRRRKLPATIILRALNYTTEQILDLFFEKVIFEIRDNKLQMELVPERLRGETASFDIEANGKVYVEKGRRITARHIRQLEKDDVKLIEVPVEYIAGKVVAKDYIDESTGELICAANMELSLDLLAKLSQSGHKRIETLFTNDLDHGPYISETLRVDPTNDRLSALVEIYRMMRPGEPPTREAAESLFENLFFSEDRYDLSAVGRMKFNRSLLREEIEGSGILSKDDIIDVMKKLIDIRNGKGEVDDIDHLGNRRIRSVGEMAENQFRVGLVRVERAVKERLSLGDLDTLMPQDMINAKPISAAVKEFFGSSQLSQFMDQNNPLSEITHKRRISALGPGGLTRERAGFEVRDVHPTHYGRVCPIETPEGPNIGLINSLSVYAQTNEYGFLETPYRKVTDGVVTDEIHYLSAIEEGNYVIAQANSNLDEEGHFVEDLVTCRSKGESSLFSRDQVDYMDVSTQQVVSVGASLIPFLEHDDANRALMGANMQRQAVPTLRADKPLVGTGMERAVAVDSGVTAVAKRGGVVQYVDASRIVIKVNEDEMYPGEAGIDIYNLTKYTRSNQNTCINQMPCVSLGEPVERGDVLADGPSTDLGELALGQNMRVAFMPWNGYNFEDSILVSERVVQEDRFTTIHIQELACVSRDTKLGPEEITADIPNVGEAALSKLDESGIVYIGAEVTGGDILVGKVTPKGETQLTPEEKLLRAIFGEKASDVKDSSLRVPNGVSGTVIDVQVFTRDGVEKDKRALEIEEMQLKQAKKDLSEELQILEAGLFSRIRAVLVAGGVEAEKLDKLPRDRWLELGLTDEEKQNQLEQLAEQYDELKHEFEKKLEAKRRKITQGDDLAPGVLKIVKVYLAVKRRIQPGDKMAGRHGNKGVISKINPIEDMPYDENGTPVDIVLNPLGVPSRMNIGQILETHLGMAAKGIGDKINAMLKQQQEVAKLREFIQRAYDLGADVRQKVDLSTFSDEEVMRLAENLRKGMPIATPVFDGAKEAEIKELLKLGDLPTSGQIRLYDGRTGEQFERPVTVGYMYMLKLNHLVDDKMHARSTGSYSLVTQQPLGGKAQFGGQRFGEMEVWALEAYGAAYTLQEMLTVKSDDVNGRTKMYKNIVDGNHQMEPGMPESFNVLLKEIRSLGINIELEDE

SMILES	IC50 [1]	IC50 [2]	IC50 [3]	IC50 [4]
CO[C@H]1/C=C/O[C@@]2(C)Oc3c(C)c(O)c4c(O)c(cc(O)c4c3C2=O)NC(=O)/C(C)=C\C=C\[C@H](C)[C@H](O)[C@@H](C)[C@@H](O)[C@@H](C)[C@H](OC(C)=O)[C@@H]1C [CB-01-11]	0.03 µM and 0.02 µM	80 µM	70 µM	> 100 µM
CC(C)Cc1nnc2c(C(=O)NC3c4ccccc4-c4ccccc43)cccn12 [MRL-436]	2 µM and 3 µM	4 µM	4 µM	3 µM
